For two compounds, Ki results are on record in patent publication US5883257A, “N-piperidinyl- and N-tetrahydropyridinyl-2-anthracenecarboxamides: dopamine receptor subtype specific ligands” (Neurogen Corporation, priority 1997, dated 1999).

For one experiment, the target named is dopamine D3 receptor (Chlorocebus aethiops, UniProt P52703). Put plainly: D3 receptor binding assay (displacement of 3H-YM 09151-2). Set-up: species or system African Green monkey. Particulars: 0.5 nM 3H-YM 09151-2; COS cells with recombinant D3 receptors; 0.05M Tris HCl, 100 mM NaCl; nonspecific: 1 mM spiperone. For orientation: Loss of bound radioactivity is the signal in a displacement assay; it reports binding, not function.

For a further experiment, the target named is dopamine D2 receptor (Chlorocebus aethiops, UniProt P52702). The experiment can be described thus: D2 receptor binding assay (displacement of 3H-YM 09151-2). More on the design: species or system African Green monkey. As to conditions: 0.5 nM 3H-YM 09151-2; COS cells with recombinant D2 receptors; 0.05M Tris HCl, 100 mM NaCl; nonspecific: 1 mM spiperone.

Where a name gives a salt, the structure may show the parent alone.

Sequence of dopamine D2 receptor (P52702 whole entry): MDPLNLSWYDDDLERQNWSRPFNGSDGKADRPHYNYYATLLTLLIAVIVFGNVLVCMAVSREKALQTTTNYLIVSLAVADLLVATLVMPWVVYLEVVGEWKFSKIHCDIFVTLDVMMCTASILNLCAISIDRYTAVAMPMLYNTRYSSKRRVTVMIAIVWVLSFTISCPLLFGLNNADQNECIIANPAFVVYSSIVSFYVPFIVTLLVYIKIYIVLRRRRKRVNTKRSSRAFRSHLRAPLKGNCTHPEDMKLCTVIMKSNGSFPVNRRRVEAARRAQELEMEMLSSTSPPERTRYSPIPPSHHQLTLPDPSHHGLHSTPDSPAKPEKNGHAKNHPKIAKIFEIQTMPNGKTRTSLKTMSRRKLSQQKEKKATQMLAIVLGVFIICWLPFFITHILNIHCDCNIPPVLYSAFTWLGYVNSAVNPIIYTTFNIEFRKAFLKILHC
Sequence of dopamine D3 receptor (P52703 whole entry): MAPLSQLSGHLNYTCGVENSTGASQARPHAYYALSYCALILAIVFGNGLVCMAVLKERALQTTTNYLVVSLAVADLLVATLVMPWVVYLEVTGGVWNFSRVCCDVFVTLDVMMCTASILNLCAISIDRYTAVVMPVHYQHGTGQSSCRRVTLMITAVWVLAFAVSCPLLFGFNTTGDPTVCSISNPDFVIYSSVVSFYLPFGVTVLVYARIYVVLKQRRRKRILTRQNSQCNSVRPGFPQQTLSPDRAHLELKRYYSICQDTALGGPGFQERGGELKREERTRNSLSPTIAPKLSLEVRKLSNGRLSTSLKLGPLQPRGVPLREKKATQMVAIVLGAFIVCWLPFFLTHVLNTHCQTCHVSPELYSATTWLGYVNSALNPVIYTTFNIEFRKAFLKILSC

A word on the Ki: it is a measure of affinity in units of concentration, obtained from inhibition or displacement. Take `O=C(NCCCCN1CCN(c2cccc3ccccc23)CC1)c1ccc2cc3ccccc3cc2c1` [Compound 2, N-{4-[4-(1-Naphthyl)-1-piperazinyl]butyl}-2-anthracenecarboxamide hydrochloride]: the figures for the Ki at dopamine D3 receptor and on dopamine D2 receptor were 1.2 nM and 550 nM, respectively.
Take `O=C(NCCCCN1CCN(c2cccc(Cl)c2Cl)CC1)c1ccc2cc3ccccc3cc2c1` [Compound 1, N-{4-[4-(2,3-Dichlorophenyl)-1-piperazinyl]butyl}-2-anthracenecarboxamide]: the Ki on dopamine D3 receptor is 7 nM; on dopamine D2 receptor, 1090 nM.
